Measured values taken from US20210322508A1, “PEPTIDES AND COMPOSITIONS FOR TARGETED TREATMENT AND IMAGING” (SIGNABLOK, INC., priority 2018, published 2021).
Residues, ends and D or L forms follow the SMILES beside them.

Assays:
J774 macrophages = test: in vitro macrophage uptake (endocytosis) of rho B-labeled peptides and lipopeptide complexes; format: cell-based, murine; details: for mechanism of macrophage endocytosis (scavenger receptors): J774, 4 h or 22 h, G-HV21 and G-KV21 in the presence of HDL; for in vitro macrophage uptake, presence vs. absence of HDL: rho B-labeled peptides
Method: In Vitro Macrophage Uptake of GF9HDL and GA/E31HDL A quantitative in vitro macrophage assay of endo-cytosis of rho B-labeled HDL-mimicking lipopeptide complexes by J774 macrophage was performed as described. (18-20) Briefly, BALB/c murine macrophage J774A.1 cells (ATCC) were cultured at 37° C. with 5% CO2 in Dulbecco's modified Eagle's medium (Cellgro Mediatech, Manassas, Va.) with 2 mM glutamine, 100 U/mL penicillin, 0.1 mg/mL streptomycin, and 10% heat-inactivated fetal bovine serum (Cellgro Mediatech) and grown to approximately 90% confluency in 12-well tissue culture plates (Corning Costar, Corning, N.Y.).
Cells were washed twice using phosphate-buffered saline and lysed using Passive Lysis Buffer (Promega, Madison, Wis.). Rho B fluorescence was measured in the lysates with 544-nm excitation and 590-nm emission filters, using a Fluoroscan Ascent CF fluorescence microplate reader (Thermo Labsystems, Vantaa, Finland). Protein concentrations in the lysates were measured using Bradford reagent (Sigma-Aldrich) and an MRX microplate reader (Dynex Technologies, Chantilly, Va.) according to the manufacturer's recommended protocol.

[1] = tolerability in healthy mice (body weight); format: in vivo
Method: As described herein, healthy C57BL/6 mice were intraperitoneally (i.p.) administered daily for 7 consecutive days with GF9 at indicated doses Mouse body weight (BW) was measured daily.

[2] = test system: mice with collagen-induced arthritis (CIA); test: collagen-induced arthritis (CIA) in mice; details: for tolerability in arthritic mice (body weight changes) / arthritis (clinical arthritis score): CIA mice; for tolerability in arthritic mice (body weight changes): day 24 to day 38; for arthritis (clinical arthritis score): treatment days 24-38
Source text: As described herein, starting on day 24 after immunization, mice with CIA were intraperitoneally (i.p.) administered daily for 14 consecutive days with vehicle (black diamonds), dexamethasone (black squares), GF9 (white circles), GF9-LPC (black circles) and GA/E31-LPC (half black half white circles) at indicated doses. Daily clinical scores were given on a scale of 0-5 for each of the paws on days 24-38. On day 38, mice were killed and the histopathological examination of mouse joints was performed. Histopathological scores of inflammation (I), pannus (P), cartilage damage (CD), bone resorption (BR) and periosteal new bone formation (PBF) are shown. Summed histopathology scores were calculated as the sum of all five histopathological parameters. All results are expressed as the mean±SEM (n=10 mice per group).
Mouse body weight (BW) was measured every other day from day 24 to day 38. Mean BW changes were calculated as a percentage of the difference between beginning (day 24) and final (day 38) BWs of the CIA mice intraperitoneally (i.p.) treated daily for 14 consecutive days with vehicle, dexamethasone, GF9, GF9-LPC and GA/E31-LPC at indicated doses. All results are expressed as the mean±SEM (n=10 mice per group).
Plasma was collected on days 24, 30 and 38 from arthritic mice treated with vehicle (black diamonds), GF9 (white circles), GF9-LPC (black circles) and GA/E31-LPC (half black half white circles). Plasma samples were analyzed for concentrations of interleukin-1b (IL-1b), IL-6, and colony-stimulating factor 1 (CSF1). Results are expressed as the mean±SEM (n=5 mice per group).

[3] = Mouse tolerability studies; format: in vivo; details: female, C57BL/6, mouse, in vivo, ip
Method: Naïve, female C57BL/6 mice at 8 to 10 weeks of age (18 to 21 g) from the Jackson Laboratory were used. […] Clinical observations and body weights were made twice daily.
Naïve, female C57BL/6 mice at 8 to 10 weeks of age (18 to 21 g) from the Jackson Laboratory were used. Animals were randomly grouped (5 mice per group) and i.p. injected with 400 mg/kg G-HV21, G-KV21 or G-TE21. Clinical observations and body weights were made twice daily.

[4] = test system: DBA/1 mice with collagen-induced arthritis; test: Collagen-induced arthritis (CIA) model; details: for CIA severity; bone and cartilage damage: 5 mg/kg i.p. daily 14 days, free peptides
Method: Animal studies were performed by Bolder BioPATH (Boulder, Colo., USA). CIA was induced in male 6- to 7-week-old DBA/1 mice by immunization with bovine type II collagen. Briefly, mice were injected intradermally with 100 μl of Freund's complete adjuvant containing 250 μg of bovine type II collagen (2 mg/ml final concentration) at the base of the tail on day 0 and again on day 21. On day 24, mice were randomized by body weight into treatment groups. […] Mice were weighed on study days 24, 26, 28, 30, 32, 34, 36 and 38 (prior to necropsy). Daily clinical scores were given on a scale of 0-5 for each of the paws on days 24-38. On day 38, mice were killed for necropsy.
At the end of study, fore paws, hind paws and knees were harvested, fixed in 10% neutral buffered formalin for 1-2 days, and then decalcified in 5% formic acid for 4-5 days before standard processing for paraffin embedding. Sections (8 μm) were cut and stained with toluidine blue (T blue). Hind paws, fore paws and knees were embedded and sectioned in the frontal plane. Six joints from each animal were processed for histopathological evaluation. The joints were then assessed using 0-5 scale for inflammation, pannus formation, cartilage damage, bone resorption and periosteal new bone formation. A summed histopathology score (sum of five parameters, 0-25 scale) was also determined.
Animal studies were performed by Bolder BioPATH (Boulder, Colo., USA). CIA was induced in male 6- to 7-week-old DBA/1 mice by immunization with bovine type II collagen. Briefly, mice were injected intradermally with 100 μl of Freund's complete adjuvant containing 250 μg of bovine type II collagen (2 mg/ml final concentration) at the base of the tail on day 0 and again on day 21. On day 24, mice were randomized by body weight into treatment groups. […] Starting day 24, mice were injected i.p. intraperitoneally daily for 14 consecutive days with 5 mg/kg G-KV21, G-HV21, G-TE21, M-TK32 and M-VE32 or with PBS (vehicle). Mice were weighed on study days 24, 26, 28, 30, 32, 34, 36 and 38 (prior to necropsy). Daily clinical scores were given on a scale of 0-5 for each of the paws on days 24-38. On day 38, mice were killed for necropsy.

H292 and A549 xenografts = details: for tumor growth: free peptides i.p. at indicated doses
Method: Animal efficacy studies were performed using female 6-8 week old NU/J mice from the Jackson Laboratory (Bar Harbor, Me.). Animals were handled as specified in the USDA Animal Welfare Act (9 CFR, Parts 1, 2, and 3) and as described in the Guide for the Care and Use of Laboratory Animals from the National Research Council. Human lung carcinoma cell lines H292 and A549 were obtained from ATCC. Tumor cells in culture were harvested and resuspended in a 1:1 ratio of RPMI 1640 and Matrigel (BD Biosciences, San Jose, Calif.). NSCLC xenografts were established by injecting subcutaneously into the right flanks 5×10^6 viable cells per mouse. Tumor volumes were calculated with caliper measurements using the formula V=π/6 (length×width×width). […] All tested formulations were intraperitoneally (i.p.) injected at indicated doses and administration schedule. Clinical observations, body weights and tumor volume measurements were made 3 times weekly. Tumor volumes were analyzed using repeated measures ANOVA followed by Bonferroni test. Data points were represented as mean tumor volume±SEM. Antitumor effects were expressed as the percentage of T/C (treated versus control), dividing the tumor volumes from treatment groups with the control groups and multiplied by 100. According to the National Cancer Institute (NCI) standards (see e.g., Johnson, et al. Br J Cancer 2001, 84:1424-1431), a % T/C≤42 is indicative of antitumor activity. At the end of the experiment, the animals were sacrificed and the tumors were excised and weighed.

mouse lipoproteins = test: ultracentrifugation of mouse serum with added rho B-labeled peptides; details: for behaviour on ultracentrifugation of delipoproteinized mouse serum: rho B-labeled peptide added to delipoproteinized mouse serum; for behaviour on ultracentrifugation of whole mouse serum: rho B-labeled peptide added to whole mouse serum
[5] = healthy C57BL/6 mice, average weights
[6] = 400 mg/kg, free form, healthy mice

SMILES | mechanism of macrophage endocytosis (scavenger receptors) (J774 macrophages) | in vitro macrophage uptake, presence vs. absence of HDL (J774 macrophages) | toxicity in healthy mice [1, 5] | tolerability in arthritic mice (body weight changes) [2] | arthritis (clinical arthritis score) [2] | MTD [3, 6] [mg/kg] | CIA severity; bone and cartilage damage [4] | tumor growth (H292 and A549 xenografts) | behaviour on ultracentrifugation of delipoproteinized mouse serum (mouse lipoproteins) | behaviour on ultracentrifugation of whole mouse serum (mouse lipoproteins) | MTD at 168 h ([1]; C57BL/6, mouse, in vivo, ip) [mg/kg] | dose tolerated by healthy mice ([1]; healthy mice, GF9 i.p. daily for 7 consecutive days) | toxicity in healthy mice ([1]; mouse, in vivo) | penetration of the synovial membrane ([2]; mouse, in vivo) | MTD [3] [mg/kg] | toxicity / tolerability in arthritic mice ([4]; mouse, in vivo, ip) | toxicity / tolerability in cancer mice (H292 and A549 xenografts; in vivo)
CC(C)C[C@H](NC(=O)[C@H](Cc1ccccc1)NC(=O)CN)C(=O)N[C@@H](CO)C(=O)N[C@@H](CCCCN)C(=O)N[C@@H](CO)C(=O)N[C@@H](CC(C)C)C(=O)N[C@H](C(=O)N[C@@H](Cc1ccccc1)C(=O)NCC(=O)N[C@@H](CCC(=O)O)C(=O)N[C@@H](CCC(=O)O)C(=O)N[C@@H](CC[S+](C)[O-])C(=O)N[C@@H](CCCNC(=N)N)C(=O)N[C@@H](CC(=O)O)C(=O)N[C@@H](CCCNC(=N)N)C(=O)N[C@@H](C)C(=O)N[C@@H](CCCNC(=N)N)C(=O)N[C@@H](C)C(=O)N[C@@H](Cc1c[nH]cn1)C(=O)N[C@H](C(=O)O)C(C)C)C(C)C (stereo partly shown) [G-HV21] (HELM PEPTIDE1{G.F.L.S.K.S.L.V.F.G.E.E.[CS(=O)CC[C@H](N[*:1])C(=O)[*:2]].R.D.R.A.R.A.H.V}$$$$V2.0) | SR-mediated in a time-dependent manner and is largely driven by SR-A | significantly increases | No toxicity was observed | well-tolerated by arthritic mice | ameliorate the disease | ≥ 400 | ameliorate CIA and protect against bone and cartilage damage | inhibit tumor growth in two human NSCLC xenograft mouse models | sedimentate with serum proteins | floatation of these peptides with mouse lipoproteins |  |  |  |  |  |  | 
CC(C)C[C@H](NC(=O)[C@H](Cc1ccccc1)NC(=O)CN)C(=O)N[C@@H](CO)C(=O)N[C@@H](CCCCN)C(=O)N[C@@H](CO)C(=O)N[C@@H](CC(C)C)C(=O)N[C@H](C(=O)N[C@@H](Cc1ccccc1)C(=O)N[C@@H](Cc1c[nH]c2ccccc12)C(=O)N[C@@H](CCC(N)=O)C(=O)N[C@@H](CCC(=O)O)C(=O)N[C@@H](CCC(=O)O)C(=O)N[C@@H](CC[S+](C)[O-])C(=O)N[C@@H](CCC(=O)O)C(=O)N[C@@H](CC(C)C)C(=O)N[C@@H](Cc1ccc(O)cc1)C(=O)N[C@@H](CCCNC(=N)N)C(=O)N[C@@H](CCC(N)=O)C(=O)N[C@@H](CCCCN)C(=O)N[C@H](C(=O)O)C(C)C)C(C)C (stereo partly shown) [G-KV21] (HELM PEPTIDE1{G.F.L.S.K.S.L.V.F.W.Q.E.E.[CS(=O)CC[C@H](N[*:1])C(=O)[*:2]].E.L.Y.R.Q.K.V}$$$$V2.0) | SR-mediated in a time-dependent manner and is largely driven by SR-A | significantly increases | No toxicity was observed | well-tolerated by arthritic mice | ameliorate the disease | ≥ 400 | ameliorate CIA and protect against bone and cartilage damage | inhibit tumor growth in two human NSCLC xenograft mouse models | sedimentate with serum proteins | floatation of these peptides with mouse lipoproteins |  |  |  |  |  |  | 
CC(C)C[C@H](NC(=O)[C@H](Cc1ccccc1)NC(=O)CN)C(=O)N[C@@H](CO)C(=O)N[C@@H](CCCCN)C(=O)N[C@@H](CO)C(=O)N[C@@H](CC(C)C)C(=O)N[C@H](C(=O)N[C@@H](Cc1ccccc1)C(=O)O)C(C)C [GF9] (H-GFLSKSLVF-OH) |  |  |  |  |  |  |  |  |  | sedimentate with serum proteins | ≥ 300 | up to 300 mg/kg | non-toxic | penetrate the synovial membrane | ≥ 300 | non-toxic and well-tolerable by arthritic mice | non-toxic and well-tolerable by cancer mice
